Measurements as given in patent publication US7122294B2, “Photoacid generators with perfluorinated multifunctional anions” (3M Innovative Properties Company, priority 2003, dated 2006).
Values joined by “and” are separate entries in the source; they are usually repeats but may differ in a detail not shown here. Equal values may be shown once. Each block holds one compound with its values, some of them ahead of it.

How the values were obtained:
[1] = Bio-elimination screening after a single oral dose; format: in vivo, male Sprague Dawley rats; settings: for Total F concentration in Liver / Total F concentration in Serum: 30 mg/kg single oral dose; for parent compound recovered in the urine: within the first 28 hours post dose, 19F NMR; for bioelimination compared to PFOS: screenings in rats
Procedure: The objective of this study was to evaluate the potential for oral absorption, distribution, and serum and liver elimination rates of KO3SCF2CF2CF2CF2SO3K and LiO3SCF2CF2CF2COOLi in male Sprague Dawley rats after a single oral dose. Quantitation of fluorinated salt levels and potential metabolites in serum and liver were performed by total organic fluorine analysis.
21 male Sprague Dawley rats (Harlan), 6–8 weeks in age and weighing approximately 150–250 g were treated with a single dose of the test compound, prepared in propylene glycol (suspension of 6 mg/ml propylene glycol), via oral gavage at either 0 mg/kg (control) or 30 mg/kg body weight (Group 1) (3 animals per dose group per designated treatment period). […] Liver and serum samples were collected for total fluorine analysis on each of those days. All the specimens collected at necropsy were temporarily stored in at −70° C. A complete protocol for this study is available (Strategic Toxicology Lab Protocol Number ST-88). Urine samples were collected and analyzed by ^19F NMR on day one and day four (0–4, 4–24 and 76–100 hrs, respectively) post dose in order to determine the concentration of the respective perfluorinated anion.

[2] = Photo-DSC/DSC cationic curing activity of PAGs in Epon 828; set-up: PDSC Peak Max / PDSC Induction Time: unit not given here
Procedure: (§1) Photo-DSC/DSC: Standard (hermetic) liquid sample pans were used. Sample size was kept in the 6 to 8 mg range. Samples were tested using a Dupont Photo-DSC/DSC instrument (available from DuPont, Wilmington, Del.). The light source was a 200 W Hg lamp that delivered about 60 mw/cm at the sample. Samples were exposed in open pans for 5 minutes to the light source at 30° C. then removed from the instrument, sealed and a standard DSC scan run at 10° C./minute to 300° C. A separate DSC experiment was carried out using a sealed sample pan and no prior light exposure to determine the dark reactivity of these PAGs. Comparison of the DSC traces before and after light exposure enables differentiation between the thermal reactivity of the PAGs (in the dark) and their photochemical activity.
(§2) This example describes photo-DSC/DSC experiments designed to quantitatively compare the relative cationic curing reactivities of PAGs of the present invention containing difunctional fluoroorganic sulfonate anions with related PAGs having identical cations and monofunctional perfluoroalkanesulfonate anions. Relative reactivities were measured in three different cationically polymerizable monomer systems, including two different types of epoxies and one vinyl ether.
(§3) The photo-DSC experiment provides information on the photo-cure speed at 30° C. as measured by the induction time (onset) and time to reach the peak maximum in the curing exotherm. […] The energy released under the curing exotherm is a measure of the extent of cure; larger values mean more cure has taken place during the light exposure. […] Comparison with the DSC traces recorded with no prior light exposure provides a measure of the increase in activity after photoactivation of the PAG.
(§4) General: Stock solutions of three cationically curable monomers were prepared as shown in Table 3 with 0.1% (w/w) isopropylthioxanthone (ITX). Epon 828 is a difunctional glycidyl ether epoxy from Shell, ERL-4221 is a difunctional cycloaliphatic epoxy from Union Carbide and VEX 5015 is a trifunctional vinyl ether from Allied Signal. Because of the low sensitivity of these compositions to room lights, all sample preparation was done with the lab lights on but the hood lights off. All PAGs were formulated at 1.0% by weight in the stock monomer/sensitizer solutions. Into a small aluminum pan was weighed 0.02 g of PAG and 0.04 g of propylene carbonate used to promote dissolution of the PAG in the monomer. The pan was heated briefly on a hot plate set at 100° C. to dissolve the PAG, then 2.0 g the stock monomer/sensitizer solution was added. The solution was briefly heated again on a hot plate set at 100° C. to allow complete mixing of the components, then the solution was allowed to cool to room temperature before using.

[3] = Photo-DSC/DSC cationic curing activity of PAGs in ERL-4221; set-up: PDSC Peak Max / PDSC Induction Time: unit not given here
Procedure: as §1, §2, §3, §4

[4] = Photo-DSC/DSC cationic curing activity of PAGs in VEX 5015; set-up: PDSC Peak Max / PDSC Induction Time: unit not given here
Procedure: as §1, §2, §3, §4

[5] = Epon 828, DSC scan after light exposure
[6] = Epon 828, no prior light exposure
[7] = ERL-4221, DSC scan after light exposure
[8] = ERL-4221, no prior light exposure
[9] = VEX 5015, DSC scan after light exposure, two values = two exotherms

Structure (SMILES): O=S(=O)([O-])C(F)(F)C(F)(F)C(F)(F)C(F)(F)S(=O)(=O)[O-].[K+].[K+] [KO3SCF2CF2CF2CF2SO3K, KO3S(CF2)4SO3K]
Total F concentration in Liver ([1]; rat, Day 0): ND (ND = not detectable within limits of test (0.3 ppm))
Total F concentration in Serum ([1]; rat, Day 0): (ND) (ND = not detectable within limits of test (0.3 ppm))
Total F concentration in Liver ([1]; rat, Day 1): 0.6 ppm
Total F concentration in Serum ([1]; rat, Day 1): (ND) (ND = not detectable within limits of test (0.3 ppm))
Total F concentration in Liver ([1]; rat, Day 4): ND (ND = not detectable within limits of test (0.3 ppm))
Total F concentration in Serum ([1]; rat, Day 4): (ND) (ND = not detectable within limits of test (0.3 ppm))
Total F concentration in Liver ([1]; rat, Day 8): ND (ND = not detectable within limits of test (0.3 ppm))
Total F concentration in Serum ([1]; rat, Day 8): (ND) (ND = not detectable within limits of test (0.3 ppm))
Total F concentration in Liver ([1]; rat, Day 14): ND (ND = not detectable within limits of test (0.3 ppm))
Total F concentration in Serum ([1]; rat, Day 14): (ND) (ND = not detectable within limits of test (0.3 ppm))
parent compound recovered in the urine ([1]; rat, single oral dose): 11%
bioelimination compared to PFOS [1]: more readily bioeliminate compared to PFOS

Structure (SMILES): CC(C)(C)c1ccc([I+]c2ccc(C(C)(C)C)cc2)cc1.O=S(=O)([O-])C(F)(F)C(F)(F)C(F)(F)C(F)(F)F [DTBPI-ONf, reference compound]
PDSC Energy ([2]; Epon 828, 1.0% PAG, 0.1% ITX, light exposure 5 min at 30° C.): 10 J/g
DSC after PDSC Onset Temp ([2]; Epon 828, DSC scan 10° C./minute after light exposure): 100 C.°
DSC after PDSC Energy [2, 5]: 558 J/g
DSC after PDSC Peak Max [2, 5]: 190 °C
PDSC Induction Time ([2]; Epon 828, light exposure at 30° C.): 12.5
DSC Only (dark) Energy [2, 6]: 606 J/g
DSC Only (dark) Onset Temp [2, 6]: 175 C.°
DSC Only (dark) Peak Max [2, 6]: 232 °C
PDSC Peak Max ([2]; Epon 828, time to peak maximum of curing exotherm at 30° C.): 21.2
PDSC Energy ([3]; ERL-4221, 1.0% PAG, 0.1% ITX, light exposure 5 min at 30° C.): 5 J/g
DSC after PDSC Onset Temp ([3]; ERL-4221, DSC scan 10° C./minute after light exposure): 50 C.°
DSC after PDSC Energy [3, 7]: 577 J/g
DSC after PDSC Peak Max [3, 7]: 148 °C
PDSC Induction Time ([3]; ERL-4221, light exposure at 30° C.): 15.7
DSC Only (dark) Energy [3, 8]: 566 J/g
DSC Only (dark) Onset Temp [3, 8]: 150 C.°
DSC Only (dark) Peak Max [3, 8]: 192
PDSC Peak Max ([3]; ERL-4221, time to peak maximum of curing exotherm at 30° C.): 24
PDSC Energy ([4]; VEX 5015, 1.0% PAG, 0.1% ITX, light exposure 5 min at 30° C.): 242 J/g
DSC after PDSC Energy ([4]; VEX 5015, DSC scan after light exposure): 31 J/g
DSC after PDSC Onset Temp [4, 9]: 125 C.°
DSC after PDSC Peak Max [4, 9]: 159 °C
PDSC Induction Time ([4]; VEX 5015, light exposure at 30° C.): 0.9
DSC Only (dark) Onset Temp ([4]; VEX 5015, no prior light exposure, two values = two exotherms): 100, C.° and 155 C.°
PDSC Peak Max ([4]; VEX 5015, time to peak maximum of curing exotherm at 30° C.): 2.8

Total F concentration in Liver ([1]; rat, Day 0): 0.5 ppm
estimated half life of elimination via the urinary route ([1]; rat, single oral dose): less than 28 hours
parent compound recovered in the urine ([1]; rat, single oral dose): greater than 96%
Structure (SMILES): O=C(O)C(F)(F)C(F)(F)C(F)(F)S(=O)(=O)O [LiO3SCF2CF2CF2CO2Li, LiO3S(CF2)3CO2Li]
Total F concentration in Serum ([1]; rat, Day 0): (ND) (ND = not detectable within limits of test (0.3 ppm))
Total F concentration in Liver ([1]; rat, Day 1): ND (ND = not detectable within limits of test (0.3 ppm))
Total F concentration in Serum ([1]; rat, Day 1): (ND) (ND = not detectable within limits of test (0.3 ppm))
Total F concentration in Liver ([1]; rat, Day 4): ND (ND = not detectable within limits of test (0.3 ppm))
Total F concentration in Serum ([1]; rat, Day 4): (ND) (ND = not detectable within limits of test (0.3 ppm))
Total F concentration in Liver ([1]; rat, Day 8): ND (ND = not detectable within limits of test (0.3 ppm))
Total F concentration in Serum ([1]; rat, Day 8): (ND) (ND = not detectable within limits of test (0.3 ppm))
Total F concentration in Liver ([1]; rat, Day 14): ND (ND = not detectable within limits of test (0.3 ppm))
Total F concentration in Serum ([1]; rat, Day 14): (ND) (ND = not detectable within limits of test (0.3 ppm))
bioelimination compared to PFOS [1]: more readily bioeliminate compared to PFOS
